Tested on: T241 sarcoma cells
Experiment: Lung and mediastinal tumor colonization after intravenous injection of T241 sarcoma cells
Type: in vivo, mice
Protocol: Sarcoma T241 (12), a dimethylbenzanthracene-induced tumor originally derived from a C57BL/6 mouse, was maintained as ascitic tumor in syngeneic C57BL/6 mice or B6AF1 compatible hybrids (Jackson Laboratory, Bar Harbor, Me.). The capacity of the cells of this tumor to induce platelet aggregation and coagulation was assayed in a conventional manner. […] The tumor cells, however, did display a moderate procoagulant activity as reflected by a shortened recalcified clotting time. The addition of 10^6 T241 cells to syngeneic citrated plasma reduced the clotting time to between 1/3 and 1/2 control levels. Another known property of these cells is the capacity to degrade type IV collagen.
Lung tumor colonies were induced by the intravenous injection of T241 sarcoma cells. One week-old ascitic tumor cells were separated by centrifugation (100 g for 10 min) at 4° C., washed twice with Hanks' solution and suspended in the same medium (125,000-250,000 cells per ml). The suspension contained monodispersed cells of high viability (95%). Two tenths of one ml of the suspension containing 25,000 or 50,000 cells were injected intravenously into male or female C57BL/6 mice (about 25 g), and into B6AF1 mice (25-30 g), respectively, the animals housed under identical conditions of temperature, photoperiodicity, and feeding, were killed 20 days later and the number of metastases counted with a Bausch & Lomb dissecting microscope.
Two tenths of one ml of extract or semipurified fractions (100-400 ug of protein) were injected intravenously through the tail vein two hours before and two and four hours after receiving the tumor cell inoculation. Controls were similarly injected, but with 20 mM Hepes, 10 mM CaCl2, pH 7.8 aqueous solution. Additional controls were treated with either one intravenous injection of 15 units of heparin (Elkins-Sinn, Cherry Hill, N.J.) or 2 units of Bothrops atrox venom (Atroxin, Sigma, St. Louis, Mo.) in 0.2 ml of saline given 1 hour before tumor inoculation.

[1] = C57BL/6J mice, T241 cells i.v., killed 20 days later

**Q.** heparin was tested. Which “Percentage of Mice with Tumors, Lung” value [1] did it give?
**A.** Its value is 100 Percentage.

**Q.** And the “Percentage of Mice with Tumors, Mediastinal” value [1]?
**A.** Its value is 80 Percentage.

**Q.** And the “Lung Tumors per Mouse, Median” value (C57BL/6J mice, excluding mice without lung tumors)?
**A.** Its value is 5.

**Q.** And the “Diameter of Lung Tumors” value (C57BL/6J mice, mean and S.E.M., excluding mice without lung tumors)?
**A.** Its value is 2.2 ± 0.1 mm.

**Q.** And the “antimetastatic effect on lung and mediastinal tumors (in words)” value (T241 sarcoma cells i.v. in mice)?
**A.** Its value is “reduced only slightly”.

**Q.** And the “antimetastatic effect at much higher doses given more frequently” value (compared with the extract)?
**A.** The value was “could not be reproduced”.

Reference: patent US4588587A, “Method of treatment to inhibit metastasis” (Pennsylvania Hospital, priority 1983, dated 1986)
